# Structures can show the parent of a compound that is named as a salt.
# Test system: HIV wild type (WTRVA)
# Experiment: HeLa cell assay, wild type virus (WTRVA)
# Format: cell-based, HIV-1
# Set-up: scale not given here
# Conditions: Human immunodeficiency virus 1, HeLa, HeLa cell assay; read-out: IC50 against WTRVA
row,Structure (SMILES),IC50 [nM]
1,"CCc1cc(C#N)cc(Oc2c(Cl)ccc(CNC(=O)c3[nH]c(C)nc3Cl)c2F)n1 [Example 274, 4-Chloro-N-({4-chloro-3-[(4-cyano-6-ethyl-2-pyridinyl)oxy]-2-fluorophenyl}methyl)-2-methyl-1H-imidazole-5-carboxamide]",< 10
2,"N#Cc1cc(Br)cc(Oc2c(Cl)ccc(CNC(=O)c3[nH]cnc3Cl)c2F)c1 [Example 150, N-({3-[(3-bromo-5-cyanophenyl)oxy]-4-chloro-2-fluorophenyl}methyl)-4-chloro-1H-imidazole-5-carboxamide]",< 10
3,"C#Cc1cc(C#N)cc(Oc2c(Cl)ccc(CNC(=O)c3[nH]cnc3Cl)c2F)c1 [Example 310, 4-chloro-N-({4-chloro-3-[(3-cyano-5-ethynylphenyl)oxy]-2-fluorophenyl}methyl)-1H-imidazole-5-carboxamide]",< 10
4,"Cc1nc(Cl)c(C(=O)NCc2ccc(Cl)c(Oc3cc(C#N)cc(C4CC4)n3)c2F)[nH]1 [Example 273, 4-Chloro-N-({4-chloro-3-[(4-cyano-6-cyclopropyl-2-pyridinyl)oxy]-2-fluorophenyl}methyl)-2-methyl-1H-imidazole-5-carboxamide]",< 10
5,"Cc1cc(C#N)cc(Oc2c(Cl)ccc(CNC(=O)c3[nH]c(C)nc3Cl)c2F)c1 [Example 305, 4-chloro-N-({4-chloro-3-[(3-cyano-5-methylphenyl)oxy]-2-fluorophenyl}methyl)-2-methyl-1H-imidazole-5-carboxamide trifluoroacetate]",< 10
6,"Cc1nc(Cl)c(C(=O)NCc2ccc(C(F)F)c(Oc3cc(Cl)cc(C#N)c3)c2F)[nH]1 [Example 254, 4-chloro-N-{[3-[(3-chloro-5-cyanophenyl)oxy]-4-(difluoromethyl)-2-fluorophenyl]methyl}-2-methyl-1H-imidazole-5-carboxamide]",< 10
7,"C=Cc1ccc(CNC(=O)c2[nH]c(C)nc2Cl)c(F)c1Oc1cc(Cl)cc(C#N)c1 [Example 269, 4-Chloro-N-({3-[(3-chloro-5-cyanophenyl)oxy]-4-ethenyl-2-fluorophenyl}methyl)-2-methyl-1H-imidazole-5-carboxamide]",< 10
8,"Cc1nc(Cl)c(C(=O)NCc2ccc(Cl)c(Oc3cc(C#N)cc(C4CC4)c3)c2F)[nH]1 [Example 308, 4-chloro-N-({4-chloro-3-[(3-cyano-5-cyclopropylphenyl)oxy]-2-fluorophenyl}methyl)-2-methyl-1H-imidazole-5-carboxamide trifluoroacetate]",< 10
9,"N#Cc1cc(Cl)cc(Oc2c(C(F)F)ccc(CNC(=O)c3[nH]c(N)nc3Cl)c2F)c1 [Example 253, 2-amino-4-chloro-N-{[3-[(3-chloro-5-cyanophenyl)oxy]-4-(difluoromethyl)-2-fluorophenyl]methyl}-1H-imidazole-5-carboxamide]",< 10
10,"N#Cc1cc(Cl)cc(Oc2c(Cl)ccc(CNC(=O)c3[nH]c(N)nc3Cl)c2F)c1 [Example 230, 2-amino-4-chloro-N-({4-chloro-3-[(3-chloro-5-cyanophenyl)oxy]-2-fluorophenyl}methyl)-1H-imidazole-5-carboxamide trifluoroacetate]",< 10
11,"CCc1cc(C#N)cc(Oc2c(Cl)ccc(CNC(=O)c3[nH]c(C)nc3Br)c2F)c1 [Example 149, 4-bromo-N-({4-chloro-3-[(3-cyano-5-ethylphenyl)oxy]-2-fluorophenyl}methyl)-2-methyl-1H-imidazole-5-carboxamide]",< 10
12,"Cc1nc(Cl)c(C(=O)NCc2ccc(Cl)c(Oc3cc(C#N)cc(C(F)F)c3)c2F)[nH]1 [Example 300, 4-chloro-N-[(4-chloro-3-{[3-cyano-5-(difluoromethyl)phenyl]oxy}-2-fluorophenyl)methyl]-2-methyl-1H-imidazole-5-carboxamide trifluoroacetate]",< 10
13,"C=CCc1cc(C#N)cc(Oc2c(Cl)ccc(CNC(=O)c3[nH]cnc3Cl)c2F)c1 [Example 156, 4-chloro-N-[(4-chloro-3-{[3-cyano-5-(2-propen-1-yl)phenyl]oxy}-2-fluorophenyl)methyl]-1′-1H-imidazole-5-carboxamide]",< 10

# Same assay, conditions: Human immunodeficiency virus 1, HeLa, HeLa-CD4-LTR-β-gal cells, wild type virus; read-out: WTRVA activity level
row,Structure (SMILES),IC50 [nM]
1,"CC(=O)NCc1ccc2cc(C(=O)NCc3ccc(Cl)c(Oc4cc(Cl)cc(C#N)c4)c3F)[nH]c2c1 [Example 74, 6-[(acetylamino)methyl]-N-({4-chloro-3-[(3-chloro-5-cyanophenyl)oxy]-2-fluorophenyl}methyl)-1H-indole-2-carboxamide trifluoroacetate]",< 10
2,"N#Cc1cc(Cl)cc(Oc2c(Cl)ccc(CNC(=O)c3cc4cc(O)ccc4[nH]3)c2F)c1 [Example 26, N-({4-chloro-3-[(3-chloro-5-cyanophenyl)oxy]-2-fluorophenyl}methyl)-5-hydroxy-1H-indole-2-carboxamide]",< 10
3,"N#Cc1cc(Cl)cc(Oc2c(Cl)ccc(CNC(=O)c3ccccn3)c2F)c1 [Example 85, N-({4-chloro-3-[(3-chloro-5-cyanophenyl)oxy]-2-fluorophenyl}methyl)-2]",< 10
4,"CS(=O)(=O)c1ccc(C(=O)NCc2ccc(Cl)c(Oc3cc(Cl)cc(C#N)c3)c2F)cc1 [Example 92, N-({4-chloro-3-[(3-chloro-5-cyanophenyl)oxy]-2-fluorophenyl}methyl)-4-(methylsulfonyl)benzamide]",10 to 1000
5,"N#Cc1cc(Cl)cc(Oc2c(Cl)ccc(CNC(=O)c3ccncc3)c2F)c1 [Example 89, N-({4-chloro-3-[(3-chloro-5-cyanophenyl)oxy]-2-fluorophenyl}methyl)-4-pyridinecarboxamide trifluoroacetate]",10 to 1000
6,"N#Cc1cc(Cl)cc(Oc2c(Cl)ccc(CNC(=O)c3cc4ccc(OCc5ccccc5)cc4[nH]3)c2F)c1 [Example 43, N-({4-chloro-3-[(3-chloro-5-cyanophenyl)oxy]-2-fluorophenyl}methyl)-6-[(phenylmethyl)oxy]-1H-indole-2-carboxamide]",10 to 1000
7,"N#Cc1cc(Cl)cc(Oc2c(Cl)ccc(CNC(=O)c3snnc3-c3ccccc3)c2F)c1 [Example 99, N-({4-chloro-3-[(3-chloro-5-cyanophenyl)oxy]-2-fluorophenyl}methyl)-4-phenyl-1,2,3-thiadiazole-5-carboxamide]",> 1000
8,"N#Cc1cc(Cl)cc(Oc2c(Cl)ccc(CNC(=O)c3cc4cc(NC(=O)CN)ccc4[nH]3)c2F)c1 [Example 120, N-({4-chloro-3-[(3-chloro-5-cyanophenyl)oxy]-2-fluorophenyl}methyl)-5-(glycylamino)-1H-indole-2-carboxamide trifluoroacetate]",< 10
9,"N#Cc1cc(Cl)cc(Oc2c(Cl)ccc(CNC(=O)c3cc4cc(Cl)ccc4[nH]3)c2F)c1 [Example 109, 5-chloro-N-({4-chloro-3-[(3-chloro-5-cyanophenyl)oxy]-2-fluorophenyl}methyl)-1H-indole-2-carboxamide]",10 to 1000
10,"CC(=O)c1ccc2[nH]c(C(=O)NCc3ccc(Cl)c(Oc4cc(Cl)cc(C#N)c4)c3F)cc2c1 [Example 80, 5-acetyl-N-({4-chloro-3-[(3-chloro-5-cyanophenyl)oxy]-2-fluorophenyl}methyl)-1H-indole-2-carboxamide trifluoroacetate]",< 10
11,"N#Cc1cc(Cl)cc(Oc2c(Cl)ccc(CNC(=O)c3csc(-c4ccncc4)n3)c2F)c1 [Example 88, N-({4-chloro-3-[(3-chloro-5-cyanophenyl)oxy]-2-fluorophenyl}methyl)-2-(4-pyridinyl)-1,3-thiazole-4-carboxamide trifluoroacetate]",10 to 1000

# Reference: patent US8304419B2, “Chemical compounds” (priority 2007, dated 2012)
